This passage reports relative viability results from the supplement of paper PMC10307832.

Common to all, as to test: relative viability (nuclei count vs DMSO), 5 days (fraction); higher = more cells survive
Compound in experiment [1]: CC(O)(CS(=O)(=O)c1ccc(F)cc1)C(=O)Nc1ccc(C#N)c(C(F)(F)F)c1 [Bicalutamide] + O=C(c1cc(Cc2n[nH]c(=O)c3ccccc23)ccc1F)N1CCN(C(=O)C2CC2)CC1 [Olaparib] (partner 8 µM)
The gist of the method:
(§1)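 After 5 days of treatment, lung cancer cells in 1536-well plates were fixed and stained in a single step (final 0.05% Triton X-100, 1% formaldehyde, 1 ug/ml Hoechst) and their nuclei counted on 4× images. Treatment had been applied by pin tool the day after seeding as one drug alone or as a fixed anchor-drug dose with five library-drug doses (not always all listed) in √10 steps. Relative viability is the nuclei count of treated wells divided by that of vehicle wells, and values are medians of duplicate plates.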

Compound in experiment [2]: C(C(=O)C(=O)O)Br [Bromopyruvate] + COc1cc2c(Oc3ccc(NC(=O)C4(C(=O)Nc5ccc(F)cc5)CC4)cc3F)ccnc2cc1OCCCN1CCOCC1 [Foretinib] (partner 0.25 µM)
The gist of the method:
as §1

Compound in experiment [3]: CC(O)(CS(=O)(=O)c1ccc(F)cc1)C(=O)Nc1ccc(C#N)c(C(F)(F)F)c1 [Bicalutamide] + Cc1cc(Nc2cc(N3CCN(C)CC3)nc(Sc3ccc(NC(=O)C4CC4)cc3)n2)n[nH]1 [Tozasertib] (partner 0.1 µM)
The gist of the method:
as §1

Compound in experiment [4]: C(C(=O)C(=O)O)Br [Bromopyruvate] + CS(=O)(=O)N1CCN(Cc2cc3nc(-c4cccc5[nH]ncc45)nc(N4CCOCC4)c3s2)CC1 [Pictilisib] (partner 1 µM)
The gist of the method: as §1

For NCI-H2405, the relative viability was 0.947 in experiment [1] (first compound 0.08 µM); 0.83 in experiment [1] (first compound 0.253 µM); 0.919 in experiment [1] (first compound 0.8 µM); 0.842 in experiment [1] (first compound 2.53 µM); 1.08 in experiment [2] (first compound 1 µM); 1.07 in experiment [2] (first compound 3.162 µM). In addition, the relative viability amounted to 1.08 in experiment [2] (first compound 10 µM); 1.04 in experiment [2] (first compound 31.62 µM); 1.04 in experiment [2] (first compound 100 µM); 0.876 in experiment [3] (first compound 0.08 µM); 0.691 in experiment [3] (first compound 0.253 µM); 0.715 in experiment [3] (first compound 0.8 µM). The relative viability in experiment [3] (first compound 2.53 µM) turned out to be 0.656; in experiment [4] (first compound 1 µM), 0.441; in experiment [4] (first compound 3.162 µM) it was 0.524; in experiment [4] (first compound 10 µM), 0.431; in experiment [4] (first compound 31.62 µM), 0.349; in experiment [4] (first compound 100 µM), 0.517.
In the case of NCI-H2023, the relative viability in experiment [1] (first compound 0.08 µM) worked out at 0.534; in experiment [1] (first compound 0.253 µM), 0.493; in experiment [1] (first compound 0.8 µM), 0.495; in experiment [1] (first compound 2.53 µM) it was 0.394; in experiment [2] (first compound 1 µM) it was 0.716; in experiment [2] (first compound 3.162 µM), 0.776. The relative viability in experiment [2] (first compound 10 µM) was 0.813; in experiment [2] (first compound 31.62 µM) it was 0.985; in experiment [2] (first compound 100 µM), 0.806; in experiment [3] (first compound 0.08 µM), 0.448; in experiment [3] (first compound 0.253 µM) it was 0.376; in experiment [3] (first compound 0.8 µM), 0.306. The relative viability in experiment [3] (first compound 2.53 µM) worked out at 0.249; in experiment [4] (first compound 1 µM), 0.236; in experiment [4] (first compound 3.162 µM), 0.237; in experiment [4] (first compound 10 µM) it was 0.221; in experiment [4] (first compound 31.62 µM), 0.209; in experiment [4] (first compound 100 µM) it was 0.25.
As for HCC-15, the relative viability in experiment [1] (first compound 0.08 µM) stood at 0.77; in experiment [1] (first compound 0.253 µM) it was 0.685; in experiment [1] (first compound 0.8 µM) it was 0.769; in experiment [1] (first compound 2.53 µM), 0.657; in experiment [2] (first compound 1 µM), 1; in experiment [2] (first compound 3.162 µM), 1.05. Besides, the relative viability turned out to be 1.07 in experiment [2] (first compound 10 µM); 1.08 in experiment [2] (first compound 31.62 µM); 1.02 in experiment [2] (first compound 100 µM); 0.428 in experiment [3] (first compound 0.08 µM); 0.394 in experiment [3] (first compound 0.253 µM); 0.365 in experiment [3] (first compound 0.8 µM). The relative viability in experiment [3] (first compound 2.53 µM) came out at 0.228; in experiment [4] (first compound 1 µM) it was 0.719; in experiment [4] (first compound 3.162 µM), 0.719; in experiment [4] (first compound 10 µM) it was 0.808; in experiment [4] (first compound 31.62 µM), 0.732; in experiment [4] (first compound 100 µM), 0.7.
Consider COR-L23, for which the relative viability in experiment [1] (first compound 0.08 µM) turned out to be 0.319; in experiment [1] (first compound 0.253 µM), 0.309; in experiment [1] (first compound 0.8 µM), 0.294; in experiment [1] (first compound 2.53 µM), 0.293; in experiment [2] (first compound 1 µM) it was 0.905; in experiment [2] (first compound 3.162 µM) it was 0.914. In addition, the relative viability in experiment [2] (first compound 10 µM) is 1.02; in experiment [2] (first compound 31.62 µM), 0.971; in experiment [2] (first compound 100 µM), 0.434; in experiment [3] (first compound 0.08 µM), 0.253; in experiment [3] (first compound 0.253 µM) it was 0.196; in experiment [3] (first compound 0.8 µM), 0.172. The relative viability came to 0.179 in experiment [3] (first compound 2.53 µM); 0.763 in experiment [4] (first compound 1 µM); 0.772 in experiment [4] (first compound 3.162 µM); 0.98 in experiment [4] (first compound 10 µM); 0.673 in experiment [4] (first compound 31.62 µM); 0.524 in experiment [4] (first compound 100 µM).
Turning to HCC-78, the relative viability in experiment [1] (first compound 0.08 µM) came out at 0.709; in experiment [1] (first compound 0.253 µM), 0.651; in experiment [1] (first compound 0.8 µM) it was 0.889; in experiment [1] (first compound 2.53 µM), 0.766; in experiment [2] (first compound 1 µM) it was 0.55; in experiment [2] (first compound 3.162 µM) it was 0.533. Besides, the relative viability in experiment [2] (first compound 10 µM) amounted to 0.589; in experiment [2] (first compound 31.62 µM), 0.539; in experiment [2] (first compound 100 µM), 0.532; in experiment [3] (first compound 0.08 µM) it was 0.43; in experiment [3] (first compound 0.253 µM), 0.351; in experiment [3] (first compound 0.8 µM), 0.472. Besides, the relative viability in experiment [3] (first compound 2.53 µM) amounted to 0.347; in experiment [4] (first compound 1 µM) it was 0.201; in experiment [4] (first compound 3.162 µM), 0.202; in experiment [4] (first compound 10 µM) it was 0.224; in experiment [4] (first compound 31.62 µM), 0.218; in experiment [4] (first compound 100 µM), 0.249.
On to NCI-H838, for which the relative viability in experiment [1] (first compound 0.08 µM) was 0.777; in experiment [1] (first compound 0.253 µM), 0.778; in experiment [1] (first compound 0.8 µM) it was 0.733; in experiment [1] (first compound 2.53 µM), 0.522; in experiment [2] (first compound 1 µM) it was 1.03; in experiment [2] (first compound 3.162 µM) it was 1.08. Moreover, the relative viability in experiment [2] (first compound 10 µM) was determined as 1.07; in experiment [2] (first compound 31.62 µM), 1.05; in experiment [2] (first compound 100 µM), 1.03; in experiment [3] (first compound 0.08 µM) it was 0.274; in experiment [3] (first compound 0.253 µM) it was 0.279; in experiment [3] (first compound 0.8 µM), 0.289. Also, the relative viability in experiment [3] (first compound 2.53 µM) worked out at 0.23; in experiment [4] (first compound 1 µM), 0.463; in experiment [4] (first compound 3.162 µM), 0.446; in experiment [4] (first compound 10 µM), 0.495; in experiment [4] (first compound 31.62 µM) it was 0.493; in experiment [4] (first compound 100 µM), 0.448.
On to NCI-H2126, for which the relative viability in experiment [1] (first compound 0.08 µM) was determined as 0.989; in experiment [1] (first compound 0.253 µM) it was 0.913; in experiment [1] (first compound 0.8 µM), 1.01; in experiment [1] (first compound 2.53 µM), 0.859; in experiment [2] (first compound 1 µM), 1.17; in experiment [2] (first compound 3.162 µM), 1.39. The relative viability in experiment [2] (first compound 10 µM) was determined as 1.2; in experiment [2] (first compound 31.62 µM), 1.26; in experiment [2] (first compound 100 µM) it was 1.31; in experiment [3] (first compound 0.08 µM), 0.939; in experiment [3] (first compound 0.253 µM), 0.811; in experiment [3] (first compound 0.8 µM) it was 0.944. For the same cell line, the relative viability in experiment [3] (first compound 2.53 µM) stood at 0.75; in experiment [4] (first compound 1 µM), 0.531; in experiment [4] (first compound 3.162 µM) it was 0.511; in experiment [4] (first compound 10 µM), 0.456; in experiment [4] (first compound 31.62 µM) it was 0.562; in experiment [4] (first compound 100 µM) it was 0.509.
On to BEN, for which the relative viability in experiment [1] (first compound 0.08 µM) amounted to 1.1; in experiment [1] (first compound 0.253 µM), 1.15; in experiment [1] (first compound 0.8 µM), 1.26; in experiment [1] (first compound 2.53 µM) it was 1.06; in experiment [2] (first compound 1 µM) it was 0.975; in experiment [2] (first compound 3.162 µM) it was 0.668. For the same cell line, the relative viability was 0.542 in experiment [2] (first compound 10 µM); 0.741 in experiment [2] (first compound 31.62 µM); 0.591 in experiment [2] (first compound 100 µM); 0.475 in experiment [3] (first compound 0.08 µM); 0.533 in experiment [3] (first compound 0.253 µM); 0.527 in experiment [3] (first compound 0.8 µM). The relative viability was found to be 0.487 in experiment [3] (first compound 2.53 µM); 0.64 in experiment [4] (first compound 1 µM); 0.505 in experiment [4] (first compound 3.162 µM); 0.63 in experiment [4] (first compound 10 µM); 0.552 in experiment [4] (first compound 31.62 µM); 0.508 in experiment [4] (first compound 100 µM).
